{"source": "paper PMC6931124", "about": "“NPY1R-targeted peptide-mediated delivery of a dual PPARα/γ agonist to adipocytes enhances adipogenesis and prevents diabetes progression” (Molecular Metabolism, 2019)", "key": {"[1]": {"system": "3T3-L1 preadipocytes", "experiment": "AdipoRed adipogenesis assay, 3T3-L1", "format": "cell-based, murine", "conditions": "24 h; tesa 10/25/100 μM, tesa-NPY 100 μM; AdipoRed fluorescence, DMSO = 100%; n = 3 in quadruplicate", "procedure": "3T3-L1 or SGBS cells were seeded into 96-well plates and grown to complete confluency (set as day 0). On day 2 of confluence, the 3T3-L1 cells were differentiated by DMEM High Glucose Medium supplemented with 10% (v/v) not-heat inactivated FCS, 0.5 mM IBMX, 167 nM human insulin, and 1 μM dexamethasone (differentiation medium). On day 4, the medium was replaced by insulin medium (DMEM High Glucose Medium, 10% not-heat inactivated FCS, and 167 nM human insulin). On day 6, the medium was changed to standard culture medium and changed every other day until full differentiation was achieved (on day 8). The SGBS cells were differentiated as previously described. […] On day 4, the medium was replaced by 3FC medium (DMEM High Glucose Medium and Hams F12 (1:1 (v/v))) without FCS and supplemented with 0.01 mg human apo-transferrin, 20 nM human insulin, triiodo-L-thyronine, and 100 nM hydrocortisone. The medium was changed every second day until full differentiation was achieved (day 10). […]\n(A, B) Cells were differentiated and stimulated according to the protocol depicted for 3T3-L1 (A) and for SGBS (B). […] (E,F) Expression of adipocyte-enriched genes in 3T3-L1 (E) or SGBS (F) adipocytes analyzed by qPCR. […] Statistical significances refer to DMSO-treated cells and were determined by one-way analysis of variance (ANOVA) followed by Dunnett's multiple comparison test, *≤0.05, **p ≤ 0.01, ***p ≤ 0.001."}, "[2]": {"system": "SGBS cells", "experiment": "qRT-PCR of adipocyte-marker genes, SGBS", "format": "cell-based, human", "conditions": "qPCR, vs DMSO; n ≥ 3", "procedure": "The 3T3-L1 or SGBS cells were seeded into 6-well plates and differentiated as previously described. Tesa or peptides were added to the differentiation medium at a concentration of 100 μM on day 2, followed by 12 h or 24 h incubation. On day 4, the cells were washed two times with PBS, harvested by trypsinization, and stored at −70 °C until RNA isolation was performed. […] N ≥ 3 independent experiments with two replicates were performed. For the cell culture experiments, the data were analyzed according to the 2^−ΔΔCt method using 36B4 or GAPDH as housekeeping genes and DMSO treatment as a control. Liver mRNA expression was calculated relative to 18sRNA, which was used as an internal control due to its resistance to glucose-dependent regulation. The mRNA levels were quantified using the standard curve method of QuantStudio 6 Flex software (Applied Biosystems, Foster City, CA, USA), determining the crossing points of the individual samples using an algorithm that identifies the first turning point of the fluorescence curve. Amplification of the specific transcripts was confirmed by the melting curve profiles (cooling the sample to 68 °C and heating slowly to 95 °C while measuring the fluorescence) at the end of each PCR [53].\n(A, B) Cells were differentiated and stimulated according to the protocol depicted for 3T3-L1 (A) and for SGBS (B). […] Bars represent mean ± SEM from n = 3 independent experiments performed in quadruplicates. Measurements were normalized using DMSO (vehicle)-treated cells (set to 100%). Statistical significances refer to vehicle-treated cells. (E,F) Expression of adipocyte-enriched genes in 3T3-L1 (E) or SGBS (F) adipocytes analyzed by qPCR. Values represent mean ± SEM from n ≥ 3 independent experiments performed in duplicates. […] Statistical significances refer to DMSO-treated cells and were determined by one-way analysis of variance (ANOVA) followed by Dunnett's multiple comparison test, *≤0.05, **p ≤ 0.01, ***p ≤ 0.001."}, "[3]": {"experiment": "Plasma free fatty acids", "format": "in vivo", "conditions": "db/db mice, 2.5 μM/kg/day, 8 days; n = 5", "procedure": "All of the experiments were performed according to the animal ethical laws of the state Saxony, Germany, and were approved by the local animal ethics review board (Landesdirektion Sachsen, Leipzig, Germany). Female db/db mice 12–15 weeks of age were purchased from Taconic (Denmark) and housed in groups of 5 in temperature- and humidity-controlled facilities in a 12 h:12 h light–dark cycle and had free access to tap water and food (regular chow, Sniff, Soest, Germany). Three out of seven groups served as controls (N = 15, see Table 1). The 5 db/db mice were untreated and 10 db/db mice were vehicle treated either orally or intraperitoneally (i.p.). One additional group (n = 5) of lean C57BL/6NTac mice was used as a metabolically healthy control group. […]\nSerum insulin (mouse insulin ELISA, Mercodia, Uppsala, Sweden), adiponectin (mouse adiponectin ELISA, AdipoGen, San Diego, CA, USA), leptin (mouse leptin ELISA, Crystal Chem, Downers Grove, IL, USA), and Mcp-1 (mouse/rat CCL2/JE/Mcp-1 Quantikine ELISA, R&D Systems, Minneapolis, MN, USA) levels were analyzed via ELISA according to the manufacturer's instructions. Serum concentrations of TG, FFA, and cholesterol were measured by an automatic chemical analyzer at the Institute of Laboratory Medicine and Clinical Chemistry."}, "[4]": {"system": "db/db mice", "conditions": "ref Cha et al. [93]; cited from earlier work", "excerpt": "To strengthen this finding, we examined the expression of the PPARγ-responsive genes adiponectin, Fabp4, and Cidec [[71], [72], [73], [74],[88], [89], [90], [91]]. Adiponectin may mediate the beneficial effects of PPARγ agonists for the treatment of diabetes, as it is an insulin-sensitizing adipokine that affects hepatic glucose output and decre ..."}, "[5]": {"design": "method as in Ljung et al. [74]", "conditions": "ref Ljung et al. [74]; cited from earlier work", "excerpt": "In the present study, we used db/db mice to evaluate the anti-diabetic potency of the peptide conjugate, as these mice are known to develop severe insulin resistance and hypertriglyceridemia."}}}
{"compound": "CCO[C@@H](Cc1ccc(OCCc2ccc(OS(C)(=O)=O)cc2)cc1)C(=O)O", "note": "[tesa, tesaglitazar]", "values": [{"measurement": "adipogenesis (triglyceride content), 3T3-L1", "setting": "[1]", "value": "enhanced adipogenesis in both cell lines"}, {"measurement": "Cidec expression, SGBS", "setting": "[2]", "value": "enhanced the expression of adiponectin, Fabp4, and Cidec"}, {"measurement": "Fabp4 expression, SGBS", "setting": "[2]", "value": "only Fabp4 induction by tesa reached significant differences"}, {"measurement": "adiponectin expression, SGBS", "setting": "[2]", "value": "enhanced the expression of adiponectin, Fabp4, and Cidec"}, {"measurement": "free fatty acids (FFA)", "setting": "[3]", "value": "normalization"}, {"measurement": "adiponectin mRNA expression and plasma levels", "setting": "[4]", "value": "induces increased adiponectin mRNA expression and plasma levels in db/db mice"}, {"measurement": "weight gain in treated animals", "setting": "[5]", "value": "does not lead to weight gain in treated animals"}]}
